Source: patent publication US10759751B2, “Substituted spirocyclohexanes as muscarinic M1 receptor and/or M4 receptor agonists” (Heptares Therapeutics Limited, priority 2016, dated 2020)

How the values were obtained:
Assay type in all cases: cell-based
[1] = target: T1, human muscarinic M4 receptor (Homo sapiens, UniProt P08173); assay: Alphascreen Surefire phospho-ERK1/2 functional assay, M4; conditions: for EC50 / M4 % Emax cf. ACh: CHO cells stably expressing human M4; for EC50: phospho-ERK1/2, read-out: pEC50 M4 (converted); for Emax: CHO, read-out: M4 % Emax cf. ACh, CHO cells stably expressing human M4; for Emax / M4 % Emax cf. ACh: Emax relative to ACh
T1 construct: expressed in transfected cells
T1 sequence (P08173 1-479): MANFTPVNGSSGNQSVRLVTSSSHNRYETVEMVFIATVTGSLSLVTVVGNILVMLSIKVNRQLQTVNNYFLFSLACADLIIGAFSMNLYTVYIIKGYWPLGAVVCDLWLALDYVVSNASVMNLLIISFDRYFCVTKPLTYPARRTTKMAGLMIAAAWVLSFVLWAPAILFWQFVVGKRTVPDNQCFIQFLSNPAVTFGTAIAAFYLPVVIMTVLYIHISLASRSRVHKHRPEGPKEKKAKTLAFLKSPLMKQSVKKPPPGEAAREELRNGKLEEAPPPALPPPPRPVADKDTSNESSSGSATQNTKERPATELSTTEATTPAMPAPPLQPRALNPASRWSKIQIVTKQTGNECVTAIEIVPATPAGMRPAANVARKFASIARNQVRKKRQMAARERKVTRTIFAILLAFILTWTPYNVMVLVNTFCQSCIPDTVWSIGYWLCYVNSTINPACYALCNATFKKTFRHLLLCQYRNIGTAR
Method: (§1) Functional assays were performed using the Alphascreen Surefire phospho-ERK1/2 assay (Crouch & Osmond, Comb. Chem. High Throughput Screen, 2008). ERK1/2 phosphorylation is a downstream consequence of both Gq/11 and Gi/o protein coupled receptor activation, making it highly suitable for the assessment of M1, M3 (Gq/11 coupled) and M2, M4 receptors (Gi/o coupled), rather than using different assay formats for different receptor subtypes. CHO cells stably expressing the human muscarinic M1, M2, M3 or M4 receptor were plated (25K/well) onto 96-well tissue culture plates in MEM-alpha+10% dialysed FBS. Once adhered, cells were serum-starved overnight. Agonist stimulation was performed by the addition of 5 μL agonist to the cells for 5 min (37° C.). Media was removed and 50 μL of lysis buffer added. After 15 min, a 4 μL sample was transferred to 384-well plate and 7 μL of detection mixture added. Plates were incubated for 2 h with gentle agitation in the dark and then read on a PHERAstar plate reader.
(§2) pEC50 and Emax figures were calculated from the resulting data for each receptor subtype.

[2] = target: T2, human muscarinic M1 receptor (Homo sapiens, UniProt P11229); assay: Alphascreen Surefire phospho-ERK1/2 functional assay, M1; conditions: for EC50 / M1 % Emax cf. ACh: CHO cells stably expressing human M1; for EC50: phospho-ERK1/2, read-out: pEC50 M1 (converted); for Emax: CHO, read-out: M1 % Emax cf. ACh, CHO cells stably expressing human M1; for Emax / M1 % Emax cf. ACh: Emax relative to ACh
T2 sequence (P11229 1-460): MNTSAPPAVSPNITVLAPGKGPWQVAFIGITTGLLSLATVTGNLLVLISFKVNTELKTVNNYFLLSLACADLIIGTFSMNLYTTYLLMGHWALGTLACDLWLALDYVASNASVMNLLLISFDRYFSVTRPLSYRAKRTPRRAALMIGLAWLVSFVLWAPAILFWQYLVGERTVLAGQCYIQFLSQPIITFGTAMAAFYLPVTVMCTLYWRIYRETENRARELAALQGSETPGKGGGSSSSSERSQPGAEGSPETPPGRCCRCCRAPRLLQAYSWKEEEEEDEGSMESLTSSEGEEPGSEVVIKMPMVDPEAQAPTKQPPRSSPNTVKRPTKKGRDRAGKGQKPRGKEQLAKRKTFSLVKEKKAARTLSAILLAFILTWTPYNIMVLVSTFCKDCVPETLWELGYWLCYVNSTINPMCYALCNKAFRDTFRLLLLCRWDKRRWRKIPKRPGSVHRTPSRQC
Method: as §1, §2

[3] = target: T3, human muscarinic M3 receptor (Homo sapiens, UniProt P20309); assay: Alphascreen Surefire phospho-ERK1/2 functional assay, M3
T3 construct: expressed in transfected cells
T3 sequence (P20309 whole entry): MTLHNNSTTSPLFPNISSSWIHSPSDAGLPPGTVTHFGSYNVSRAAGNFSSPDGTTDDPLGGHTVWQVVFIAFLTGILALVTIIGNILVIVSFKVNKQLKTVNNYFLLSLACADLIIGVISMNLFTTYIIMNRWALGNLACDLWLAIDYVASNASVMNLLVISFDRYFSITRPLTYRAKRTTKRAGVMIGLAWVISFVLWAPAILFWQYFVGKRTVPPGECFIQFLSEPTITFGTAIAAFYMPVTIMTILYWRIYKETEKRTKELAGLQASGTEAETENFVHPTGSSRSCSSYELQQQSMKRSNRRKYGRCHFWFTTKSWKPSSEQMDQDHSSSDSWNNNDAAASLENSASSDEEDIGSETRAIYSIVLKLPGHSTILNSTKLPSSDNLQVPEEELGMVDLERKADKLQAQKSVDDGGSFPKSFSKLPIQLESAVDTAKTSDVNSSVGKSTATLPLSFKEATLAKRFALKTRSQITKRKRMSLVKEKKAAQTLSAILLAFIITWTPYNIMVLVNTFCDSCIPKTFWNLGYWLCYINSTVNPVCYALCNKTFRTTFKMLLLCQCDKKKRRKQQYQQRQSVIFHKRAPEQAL
Method: as §1, §2

| Compound | EC50 [1] [nM] | Emax [1] [%] | EC50 [2] [nM] | Emax [2] [%] | M4 % Emax cf. ACh [1] [%] | M1 % Emax cf. ACh [2] [%] | EC50 ([3]; CHO cells stably expressing human M3, phospho-ERK1/2, read-out: pEC50 M3 (converted)) [nM] | Emax ([3]; CHO, read-out: M3 % Emax cf. ACh) [%] | M3 % Emax cf. ACh ([3]; CHO cells stably expressing human M3, Emax relative to ACh) [%] |
| --- | --- | --- | --- | --- | --- | --- | --- | --- | --- |
| CCOC(=O)N[C@H]1CCN(C2CCC3(CC2)C(=O)Nc2ccc(F)cc23)C1 (single isomer, unassigned) [2-8 isomer 1] | > 20000 | 10 | 93.3 | 59 | – | – | – | – | – |
| CCOC(=O)N[C@H]1CCN(C2CCC3(CC2)C(=O)Nc2cc(OC)ccc23)C1 (single isomer, unassigned) [2-9 isomer 1] | > 20000 | 51 | 282 | 77 | – | – | – | – | – |
| CCOC(=O)N[C@H]1CCN(C2CCC3(CC2)C(=O)N(C(=O)OCC)c2ccccc23)C1 (single isomer, unassigned) [2-14 isomer 2] | > 20000 | 56 | 117 | 77 | – | – | – | – | – |
| CCOC(=O)N[C@H]1CCN(C2CCC3(CC2)C(=O)Nc2cnc(OC)cc23)C1 (single isomer, unassigned) [2-19 isomer 1] | > 20000 | 19 | 2090 | 63 | – | – | – | – | – |
| CCOC(=O)N[C@H]1CCN(C2CCC3(CC2)C(=O)Nc2ccc(OC)nc23)C1 (single isomer, unassigned) [2-20 isomer 1] | > 20000 | 16 | 372 | 32 | – | – | – | – | – |
| CCOC(=O)N(C)[C@@H]1CCN(C2CCC3(CC2)C(=O)Nc2cccnc23)C1 (single isomer, unassigned) [2-21 isomer 2] | 245 | 86 | 468 | 58 | – | – | – | – | – |
| C/C=C/C(=O)N1CCCN(C2CCC3(CC2)C(=O)Nc2ccccc23)CC1 (single isomer, unassigned) [4-4 isomer 2] | > 20000 | 12 | 257 | 48 | – | – | – | – | – |
| CCOC(=O)N1CCCN(C2CCC3(CC2)C(=O)Nc2cc(C)ccc23)CC1 (single isomer, unassigned) [4-6 isomer 1] | 3240 | – | 575 | – | 26 | 85 | – | – | – |
| CCOC(=O)N1CCCN(C2CCC3(CC2)C(=O)Nc2cccc(C)c23)CC1 (single isomer, unassigned) [4-8 isomer 1] | 380 | – | 1100 | – | 52 | 67 | – | – | – |
| CCOC(=O)N1CCCN(C2CCC3(CC2)C(=O)Nc2cc(C#N)ccc23)CC1 (single isomer, unassigned) [4-13 isomer 2] | 347 | 39 | 955 | 38 | – | – | – | – | – |
| CCOC(=O)N1CCCN(C2CCC3(CC2)C(=O)Nc2ccc(C#N)cc23)CC1 (single isomer, unassigned) [4-14 isomer 1] | > 20000 | 24 | 977 | 76 | – | – | – | – | – |
| CCOC(=O)N1CCCN(C2CCC3(CC2)C(=O)Nc2ncc(Cl)cc23)CC1 (single isomer, unassigned) [4-16 isomer 1] | > 20000 | 5 | 891 | 60 | – | – | – | – | – |
| CCOC(=O)N1CCCN(C2CCC3(CC2)C(=O)Nc2ncc(OC)cc23)CC1 (single isomer, unassigned) [4-17 isomer 2] | > 20000 | 19 | 437 | 89 | – | – | – | – | – |
| CCOC(=O)N1CCCN(C2CCC3(CC2)CN(S(C)(=O)=O)c2ncccc23)CC1 (single isomer, unassigned) [4-19 isomer 1] | 324 | 97 | 6760 | 104 | – | – | – | – | – |

Next, values leading:

| EC50 [1] [nM] | Emax [1] [%] | EC50 [2] [nM] | Emax [2] [%] | M4 % Emax cf. ACh [1] [%] | M1 % Emax cf. ACh [2] [%] | EC50 ([3]; CHO cells stably expressing human M3, phospho-ERK1/2, read-out: pEC50 M3 (converted)) [nM] | Emax ([3]; CHO, read-out: M3 % Emax cf. ACh) [%] | M3 % Emax cf. ACh ([3]; CHO cells stably expressing human M3, Emax relative to ACh) [%] | Compound |
| --- | --- | --- | --- | --- | --- | --- | --- | --- | --- |
| 316 | 61 | 813 | 75 | – | – | – | – | – | CCOC(=O)N1CCCN(C2CCC3(CC2)C(=O)Nc2ccc(OC)nc23)CC1 (single isomer, unassigned) [4-24 isomer 1] |
| 158 | 26 | 257 | – | – | 112 | – | – | – | CCOC(=O)NC1CCN(C2CCC3(CC2)C(=O)Nc2ccccc23)CC1 (single isomer, unassigned) [7-1 isomer 1] |
| 282 | – | 490 | – | 20 | 68 | – | – | – | CCOC(=O)NC1CCN(C2CCC3(CC2)C(=O)Nc2ccccc23)CC1 (single isomer, unassigned) [7-1 isomer 2] |
| > 20000 | – | 389 | – | 10 | 66 | – | – | – | CCOC(=O)NCC1CCN(C2CCC3(CC2)C(=O)Nc2ccccc23)CC1 (single isomer, unassigned) [7-2 isomer 2] |
| > 20000 | – | 562 | – | 15 | 51 | – | – | – | Cc1noc(C2CC3(CCN(C4CCC(C#N)(c5ccc(F)cn5)CC4)C3)C2)n1 (single isomer, unassigned) [21-3 Isomer 3] |
| 69.2 | – | 162 | – | 75 | 80 | – | – | – | Cc1noc(C2CC3(CCN(C4CCC(C#N)(c5ccc(F)cn5)CC4)C3)C2)n1 (single isomer, unassigned) [21-3 Isomer 4] |
| 309 | 68 | 2140 | 47 | – | – | – | – | – | COc1ccc(C2(C#N)CCC(N3CCC4(CC(c5nc(C)no5)C4)C3)CC2)nc1 (single isomer, unassigned) [21-4 Isomer 4] |
| 1070 | 55 | > 20000 | – | – | 18 | – | – | – | Cc1ccc(C2(C#N)CCC(N3CCC4(CC(c5nc(C)no5)C4)C3)CC2)nc1 (single isomer, unassigned) [21-5 Isomer 1] |
| 1260 | – | 14500 | – | 51 | 82 | – | – | – | Cc1ccc(C2(C#N)CCC(N3CCC4(CC(c5nc(C)no5)C4)C3)CC2)nc1 (single isomer, unassigned) [21-5 Isomer 2] |
| 251 | 78 | 347 | 113 | – | – | > 20000 | 8 | – | Cc1noc(C2CC2CNC2CCC3(CC2)C(=O)Nc2ccccc23)n1 (single isomer, unassigned) [23-1 Isomer 1] |
| > 20000 | – | 224 | – | 14 | 51 | – | – | – | COc1ccc2c(c1)C1(CCC(N3CCC4(CC(c5nc(C)no5)C4)C3)CC1)C(=O)N2 (single isomer, unassigned) [26-2 Isomer 3] |
| 832 | 45 | 977 | 59 | – | – | – | – | – | N#CC1(c2ccc(F)cn2)CCC(N[C@@H]2CC[C@H](c3nc(C(F)(F)F)no3)C2)CC1 (single isomer, unassigned) [28-1 Isomer 2] |
| 955 | 55 | 3470 | 40 | – | – | – | – | – | Cc1ccc(C2(C#N)CCC(N[C@@H]3CC[C@H](c4nc(C(F)(F)F)no4)C3)CC2)nc1 (single isomer, unassigned) [28-2 Isomer 2] |
| – | – | – | – | 110 | – | – | – | 115 | CC(=O)OCC[N+](C)(C)C [ACh] |
